Data published in US9447408B2, “Method of efficiently establishing induced pluripotent stem cells” (Kyoto University, priority 2010, dated 2016).

What was measured:
[1] = tested on: Mouse embryonic fibroblasts (MEFs); test: iPS cell establishment from Nanog-GFP reporter MEFs, 4 genes (Oct3/4, Sox2, Klf4, c-Myc) introduced, with p38 inhibitors; format: cell-based
Description: Mouse embryonic fibroblasts (MEFs) from a Nanog reporter mouse carrying Nanog-GFP—IRES-Puro^r [Okita K. et al, Nature 448, 313-317 (2007)] were transfected with four genes using a retrovirus to induce iPS cells.
Each retrovirus for reprogramming was prepared by transferring each of retroviral expression vectors (pMXs-Oct3/4, pMXs-Sox2, pMXs-Klf4, pMXs-cMyc:Cell, 126, 663-676 (2006)) to Plat-E cells (Morita, S. et al., Gene Ther. 7, 1063-1066) that had been seeded to a 6-well culture plate (Falcon) at 0.6×10^6 cells per well on the day before. The cells were cultured at 37° C. in the presence of 5% CO2 using DMEM/10% FCS [a culture broth prepared by adding 10% fetal calf serum to DMEM (Nacalai Tesque)]. To facilitate vector transfer, 4.5 μL of FuGene6 transfection reagent (Roche) was placed in 100 μL of Opti-MEM I Reduced-Serum Medium (Invitrogen), and the medium was allowed to stand at room temperature for 5 minutes. Subsequently, 1.5 μg of each expression vector was added, and the medium was allowed to further stand at room temperature for 15 minutes, after which they were added to the Plat-E culture broth. On day 2, the Plat-E supernatant was replaced with a fresh supply of the medium. On day 3, the culture supernatant was recovered and filtered through a 0.45 μm sterile filter (Whatman), and polybrene (Nacalai) was added at 4 μg/mL to yield a viral liquid.
Mouse embryonic fibroblasts (MEFs) were isolated from a fetal Nanog reporter mouse (13.5 days after fertilization). […] Not expressing the puromycin resistance gene as well, MEFs are susceptible to the antibiotic puromycin. As such, MEFs were seeded to a 6-well culture plate (Falcon), previously coated with 0.1% gelatin (Sigma), at 1.0×10^5 cells per well. DMEM/10% FCS served as the culture broth at 37° C. in the presence of 5% CO2. The following day, each retrovirus liquid was added, and this was followed by overnight infection to introduce the genes.
On day 1 after the viral infection, the medium for the MEFs was removed, and the cells were washed by the addition of 1 mL of PBS. After removing the PBS, 0.25% Trypsin/1 mM EDTA (Invitrogen) was added, and a reaction was carried out at 37° C. for about 5 minutes. After the cells floated up, the cells were suspended by the addition of an ES cell culture medium and 2500 cells were seeded to a 100 mm dish having mitomycin C-treated STO feeder cells seeded thereto previously. Cultivation was continued while replacing the ES cell culture medium with a fresh supply of the same medium every two days until a visible colony emerged.
To determine the effects of p38 inhibitors on the establishment of iPS cells by the introduction of the four mouse genes, cultivation was continued with the addition of 10 μM of the p38 inhibitor 5B202190, SB239063, or SB203580 (Calbiochem Company) to the medium per the schedule shown below. All these inhibitors were used in solution in DMSO. • 1. Oct3/4, Sox2, Klf4, c-Myc, each derived from mouse, saline • 2. Oct3/4, Sox2, Klf4, c-Myc, each derived from mouse, DMSO • 3. Oct3/4, Sox2, Klf4, c-Myc, each derived from mouse, SB202190 10 μM Day 1-4) • 4. Oct3/4, Sox2, Klf4, c-Myc, each derived from mouse, SB202190 10 μM (Day 1-8) • 5. Oct3/4, Sox2, Klf4, c-Myc, each derived from mouse, SB202190 10 μM (Day 9-16) • 6. Oct3/4, Sox2, Klf4, c-Myc, each derived from mouse, SB202190 10 μM (Day 1-16) • 7. Oct3/4, Sox2, Klf4, c-Myc, each derived from mouse, SB239063 10 μM (Day 1-4) • 8. Oct3/4, Sox2, Klf4, c-Myc, each derived from mouse, SB239063 10 μM (Day 1-8) • 9. Oct3/4, Sox2, Klf4, c-Myc, each derived from mouse, SB239063 10 μM (Day 9-16) • 10. Oct3/4, Sox2, Klf4, c-Myc, each derived from mouse, SB239063 10 μM (Day 1-16) • 11. Oct3/4, Sox2, Klf4, c-Myc, each derived from mouse, SB203580 10 μM (Day 1-4) • 12. Oct3/4, Sox2, Klf4, c-Myc, each derived from mouse, SB203580 10 μM (Day 1-8) • 13. Oct3/4, Sox2, Klf4, c-Myc, each derived from mouse, SB203580 10 μM (Day 9-16) • 14. […]

[2] = tested on: Mouse embryonic fibroblasts (MEFs); test: iPS cell establishment from MEFs, 3 genes (Oct3/4, Sox2, Klf4) introduced, with p38 inhibitors; format: cell-based; details: 10 μM inhibitor added in the initial stage after the infection
Description: Three genes were introduced using a retrovirus by the same experimental procedures as the above. The cells were cultured at a cell density of 2×10^4 cells/10 cm dish, with the addition of 10 μM of SB202190, SB239063, or SB203580 (Calbiochem Company) to the medium per the schedule shown below, and the establishment efficiency was compared. • 1. Oct3/4, Sox2, Klf4, each derived from mouse, saline • 2. Oct3/4, Sox2, Klf4, each derived from mouse, DMSO • 3. Oct3/4, Sox2, Klf4, each derived from mouse, SB202190 10 μM (Day 1-4) • 4. Oct3/4, Sox2, Klf4, each derived from mouse, SB202190 10 μM (Day 1-8) • 5. Oct3/4, Sox2, Klf4, each derived from mouse, SB202190 10 μM (Day 9-16) • 6. Oct3/4, Sox2, Klf4, each derived from mouse, SB202190 10 μM (Day 1-16) • 7. Oct3/4, Sox2, Klf4, each derived from mouse, SB239063 10 μM (Day 1-4) • 8. Oct3/4, Sox2, Klf4, each derived from mouse, SB239063 10 μM (Day 1-8) • 9. Oct3/4, Sox2, Klf4, each derived from mouse, SB239063 10 μM (Day 9-16) • 10. Oct3/4, Sox2, Klf4, each derived from mouse, SB239063 10 μM (Day 1-16) • 11. Oct3/4, Sox2, Klf4, each derived from mouse, SB203580 10 μM (Day 1-4) • 12. Oct3/4, Sox2, Klf4, each derived from mouse, SB203580 10 μM (Day 1-8) • 13. Oct3/4, Sox2, Klf4, each derived from mouse, SB203580 10 μM (Day 9-16) • 14. Oct3/4, Sox2, Klf4, each derived from mouse, SB203580 10 μM (Day 1-16),

In the case of `C[S+]([O-])c1ccc(-c2nc(-c3ccc(F)cc3)c(-c3ccncc3)[nH]2)cc1` (stereo not drawn) [SB203580, 4-(4-fluorophenyl)-2-(4-methylsulfinylphenyl)-5-(4-pyridyl)-1H-imidazole], the “effect on colony count when measured on day 28 after the infection” value ([1]; 10 μM inhibitor on days 1 to 4, counted day 28) was “remarkable”, the “colony count compared with cells treated with physiological saline or DMSO” value ([1]; 10 μM inhibitor on days 1 to 4 after the infection, FIG. 1) was “tended to increase” and the “number of positive cells compared with DMSO treatment” value [2] was “increased”.
